According to patent US7405205B2, “Antitumor antisense sequences directed against R1 and R2 components of ribonucleotide reductase” (Lorus Therapeutics Inc., priority 1996, dated 2008):

Legend:
Test in all cases: Drug sensitivity by relative colony forming efficiency
Type in all cases: cell-based, mouse
[1] = test system: RP3/ASR2 cells (RP3 with R2 antisense vector)
[2] = test system: N/SH cells (NIH-3T3, empty vector)
[3] = test system: N/R2+ASR2 cells (NIH-3T3, R2 and R2 antisense vectors)
[4] = test system: B3/mR2 cells (BALB/c 3T3, R2 expression vector)
[5] = test system: N/R2-4 cells (NIH-3T3, R2 expression vector)
[6] = test system: RP3/SH cells (10T½, H-ras and mutant p53)
[7] = test system: B3/R2c2 cells (clone of B3/mR2)
[8] = test system: B3/SH cells (BALB/c 3T3, empty vector)
[9] = test system: RP6/SH cells (10T½, H-ras and mutant p53)
[10] = test system: RP6/ASR2 cells (RP6 with R2 antisense vector)

Compound: NC(=O)NO [Hydroxyurea, hydroxyurea]
- Relative Colony Forming Efficiencies ([1]; Hydroxyurea 0.1 mM): 109.3 ± 43 × 10^4
- Relative Colony Forming Efficiencies ([1]; Hydroxyurea 0.2 mM): 22.9 ± 3.1 × 10^4
- Relative Colony Forming Efficiencies ([1]; Hydroxyurea 0.3 mM): 6.6 ± 2.5 × 10^4
- Relative Colony Forming Efficiencies ([1]; Hydroxyurea 0.4 mM): 1.0 ± 0.2 × 10^4
- Relative Colony Forming Efficiencies ([1]; Hydroxyurea 0.5 mM): 0.2 ± 0.1 × 10^4
- Relative Colony Forming Efficiencies ([1]; Hydroxyurea 0.6 mM): 0.3 ± 0.1 × 10^4
- Relative Colony Forming Efficiencies ([1]; Hydroxyurea 0.8 mM): 0.1 ± 0.05 × 10^4
- Relative Colony Forming Efficiencies ([2]; Hydroxyurea 0.3 mM): 1.14 ± 0.12 × 10^4
- Relative Colony Forming Efficiencies ([2]; Hydroxyurea 0.4 mM): 0.71 ± 0.17 × 10^4
- Relative Colony Forming Efficiencies ([3]; Hydroxyurea 0.3 mM): 0.49 ± 0.34 × 10^4
- Relative Colony Forming Efficiencies ([3]; Hydroxyurea 0.4 mM): 0.14 ± 0.14 × 10^4
- Relative Colony Forming Efficiencies ([4]; Hydroxyurea 0.1 mM): 1310 ± 319.0 × 10^4
- Relative Colony Forming Efficiencies ([4]; Hydroxyurea 0.4 mM): 14.6 ± 4.0 × 10^4
- Relative Colony Forming Efficiencies ([4]; Hydroxyurea 0.5 mM): 6.5 ± 4.6 × 10^4
- Relative Colony Forming Efficiencies ([4]; Hydroxyurea 0.6 mM): 5.2 ± 3.7 × 10^4
- Relative Colony Forming Efficiencies ([4]; Hydroxyurea 0.8 mM): 2.6 ± 1.4 × 10^4
- Relative Colony Forming Efficiencies ([5]; Hydroxyurea 0.3 mM): 46.1 ± 9.8 × 10^4
- Relative Colony Forming Efficiencies ([5]; Hydroxyurea 0.4 mM): 18.0 ± 6.7 × 10^4
- Relative Colony Forming Efficiencies ([6]; Hydroxyurea 0.1 mM): 263.6 ± 19.3 × 10^4
- Relative Colony Forming Efficiencies ([6]; Hydroxyurea 0.2 mM): 53.6 ± 13.7 × 10^4
- Relative Colony Forming Efficiencies ([6]; Hydroxyurea 0.3 mM): 20.8 ± 7.5 × 10^4
- Relative Colony Forming Efficiencies ([6]; Hydroxyurea 0.4 mM): 5.8 ± 1.9 × 10^4
- Relative Colony Forming Efficiencies ([6]; Hydroxyurea 0.5 mM): 4.8 ± 1.9 × 10^4
- Relative Colony Forming Efficiencies ([6]; Hydroxyurea 0.6 mM): 0.7 ± 0.3 × 10^4
- Relative Colony Forming Efficiencies ([6]; Hydroxyurea 0.8 mM): 0.8 ± 0.3 × 10^4
- Relative Colony Forming Efficiencies ([7]; Hydroxyurea 0.1 mM): 830.8 ± 97.0 × 10^4
- Relative Colony Forming Efficiencies ([7]; Hydroxyurea 0.4 mM): 33.7 ± 11.0 × 10^4
- Relative Colony Forming Efficiencies ([7]; Hydroxyurea 0.5 mM): 26.9 ± 11.9 × 10^4
- Relative Colony Forming Efficiencies ([7]; Hydroxyurea 0.6 mM): 12.5 ± 4.6 × 10^4
- Relative Colony Forming Efficiencies ([7]; Hydroxyurea 0.8 mM): 13.2 ± 6.4 × 10^4
- Relative Colony Forming Efficiencies ([8]; Hydroxyurea 0.1 mM): 3.3 ± 1.4 × 10^4
- Relative Colony Forming Efficiencies ([8]; Hydroxyurea 0.4 mM): 0.17 ± 0.19 × 10^4
- Relative Colony Forming Efficiencies ([8]; Hydroxyurea 0.5 mM): 0.21 ± 0.14 × 10^4
- Relative Colony Forming Efficiencies ([8]; Hydroxyurea 0.6 mM): 0.41 ± 0.22 × 10^4
- Relative Colony Forming Efficiencies ([8]; Hydroxyurea 0.8 mM): 0.19 ± 0.62 × 10^4
- Relative Colony Forming Efficiencies ([9]; Hydroxyurea 0.1 mM): 201.3 ± 27.2 × 10^4
- Relative Colony Forming Efficiencies ([9]; Hydroxyurea 0.2 mM): 35.5 ± 8.4 × 10^4
- Relative Colony Forming Efficiencies ([9]; Hydroxyurea 0.3 mM): 12.6 ± 2.4 × 10^4
- Relative Colony Forming Efficiencies ([9]; Hydroxyurea 0.4 mM): 10.8 ± 4.1 × 10^4
- Relative Colony Forming Efficiencies ([9]; Hydroxyurea 0.5 mM): 12.1 ± 3.9 × 10^4
- Relative Colony Forming Efficiencies ([9]; Hydroxyurea 0.6 mM): 6.6 ± 2.9 × 10^4
- Relative Colony Forming Efficiencies ([9]; Hydroxyurea 0.8 mM): 1.7 ± 1.2 × 10^4
- Relative Colony Forming Efficiencies ([10]; Hydroxyurea 0.1 mM): 43.8 ± 12.3 × 10^4
- Relative Colony Forming Efficiencies ([10]; Hydroxyurea 0.2 mM): 8.6 ± 2.5 × 10^4
- Relative Colony Forming Efficiencies ([10]; Hydroxyurea 0.3 mM): 4.5 ± 1.1 × 10^4
- Relative Colony Forming Efficiencies ([10]; Hydroxyurea 0.4 mM): 1.2 ± 0.5 × 10^4
- Relative Colony Forming Efficiencies ([10]; Hydroxyurea 0.5 mM): 1.8 ± 0.9 × 10^4
- Relative Colony Forming Efficiencies ([10]; Hydroxyurea 0.6 mM): 1.5 ± 0.7 × 10^4
- Relative Colony Forming Efficiencies ([10]; Hydroxyurea 0.8 mM): 0.4 ± 0.3 × 10^4
